The text below walks through data of ChEMBL document CHEMBL1129818, “Discovery of anti-influenza A virus activity of a corynanthe-type indole alkaloid, hirsutine, in vitro and the structure-activity relationship of natural and synthetic analogs” (Bioorg Med Chem Lett, 1997).

For assay [1], the system named is MDCK. Kind of assay: The compound was evaluated for inhibitory effect on the replication of influenza A subtype H1N1 Bangkok/10/83 strain in MDCK cells. The class given is functional, cell-based. Conditions: Canis lupus familiaris.
The test system of assay [2] is MDCK. Kind of assay: The compound was evaluated for inhibitory effect on the replication of influenza A subtype H1N1 PR8/34 strain in MDCK cells. Conditions: Canis lupus familiaris. The class given is functional, cell-based.
Assay [3] concerns MDCK. Kind of assay: The compound was evaluated for cytotoxicity by MTT assay in MDCK cells. It is filed as functional. Conditions: Canis lupus familiaris. (Tetrazolium assays rely on reduction of a dye to a coloured formazan, in cell work by metabolically active cells.)
The subject of assay [4] is MDCK. Kind of assay: The compound was evaluated for inhibitory effect on the replication of influenza A subtype H1N1 yamagata/120/86 strain in MDCK cells. It is filed as functional, cell-based. Conditions: Canis lupus familiaris.
Assay [5] has as its system MDCK. Kind of assay: The compound was evaluated for inhibitory effect on the replication of influenza A subtype H2N2 Adachi/2/57 in MDCK cells. It is filed as functional, cell-based. Conditions: Canis lupus familiaris.
Assay [6] concerns MDCK. Kind of assay: The compound was evaluated for inhibitory effect on the replication of influenza A subtype H2N2 murakami/4/64 strain in MDCK cells. The class given is functional, cell-based. Conditions: Canis lupus familiaris.
The subject of assay [7] is MDCK. Kind of assay: The compound was evaluated for inhibitory effect on the replication of influenza A subtype H3N2 ishikawa/7/82 in MDCK cells. It is filed as functional, cell-based. Conditions: Canis lupus familiaris.
The test system of assay [8] is MDCK. Kind of assay: The compound was evaluated for inhibitory effect on the replication of influenza A subtype H3N2 Philippine/2/82 in MDCK cells. The class given is functional, cell-based. Conditions: Canis lupus familiaris.
Assay [9] concerns MDCK. Kind of assay: The compound was evaluated for inhibitory effect on the replication of influenza B norway/1/80 strain in MDCK cells. Conditions: Canis lupus familiaris. The class given is functional, cell-based.
The test system of assay [10] is MDCK. Kind of assay: The compound was evaluated for inhibitory effect on the replication of influenza B Singapore/222/79 strain in MDCK cells. It is filed as functional, cell-based. Conditions: Canis lupus familiaris.
A short description of assay [11]: Selectivity index ratio of CC50 / EC50 was determined. It is filed as functional.
Assay [12] has as its system MDCK. Kind of assay: Cytotoxicity was measured by Anti-influenza A virus Ishikawa/7/82 in MDCK cells by MTT assay. It is filed as functional. Conditions: Canis lupus familiaris.
Assay [13] has as its system MDCK. Kind of assay: Effective concentration required to determine Anti-influenza A virus Ishikawa/7/82 in MDCK cells by MTT assay. It is filed as functional, cell-based. Conditions: Canis lupus familiaris.
Assay [14] in a line: Selectivity index for effective concentration to that of Cytotoxicity in MDCK cells by MTT assay. The class given is functional.

Values after ≈ are worked out from the molar mass of the structure shown. Values joined by “and” are separate entries in the source; they are usually repeats but may differ in a detail not shown here. Equal entries are not always repeated. Where only a bound is given, the exact number is not on record here.

Regarding `CC[C@H]1CN2CCc3c([nH]c4ccccc34)[C@H]2C[C@@H]1/C(=C\OC)C(=O)OC` [HIRSUTINE], the EC50 is greater than 23.5 µg/mL in the assay with MDCK [1]; greater than 23.5 µg/mL in the assay with MDCK [2]; greater than 23.5 µg/mL in the assay with MDCK [4]; greater than 23.5 µg/mL in the assay with MDCK [5]; greater than 23.5 µg/mL with MDCK [6]; 0.4 µg/mL (≈ 1.09 µM) in the assay on MDCK [7]. In addition, the EC50 in the assay on MDCK [8] was 0.57 µg/mL (≈ 1.55 µM); in the assay on MDCK [9], greater than 23.5 µg/mL; in the assay with MDCK [10], greater than 23.5 µg/mL. For the same molecule, the half-maximal cytotoxic concentration (CC50) in the assay on MDCK [3] amounted to 23.5 µg/mL (≈ 63.8 µM). The Ratio in assay [11] was 58.8 and 41.2.
Turning to `CC[C@H]1CN2CCc3c([nH]c4ccccc34)[C@H]2C[C@@H]1/C(C=O)=C(/O)OC`, the CC50 in the assay on MDCK [12] was 8.4 µg/mL (≈ 23.7 µM). The molecule also returned an EC50 with MDCK [13] greater than 8.4 µg/mL.
In the case of `CCO/C=C(\C(=O)OC)[C@H]1C[C@@H]2c3[nH]c4ccccc4c3CCN2C[C@@H]1CC`, the CC50 in the assay with MDCK [12] worked out at 32.4 µg/mL (≈ 84.7 µM). The molecule also came in with a 50% effective concentration (EC50) with MDCK [13] of 0.9 µg/mL (≈ 2.35 µM). In addition, the Selectivity index in [14] is given as 36.4.
`CC[C@H]1CN2CCc3c([nH]c4ccccc34)[C@@H]2C[C@@H]1/C(=C/OC)C(=O)OC` [DIHYDROCORYNANTHEINE] had a half-maximal cytotoxic concentration (CC50) with MDCK [12] of 86.3 µg/mL (≈ 234 µM). The molecule further displayed an EC50 in the assay with MDCK [13] greater than 86.3 µg/mL.
In the assay on MDCK [12], `CC[C@H]1CN2CCc3c([nH]c4ccccc34)[C@H]2C[C@@H]1/C(=C/OC)C(=O)O` yielded a CC50 of 39.2 µg/mL (≈ 111 µM). The EC50 in the assay with MDCK [13] was greater than 39.2 µg/mL.
Regarding `C=CC1CN2CCc3c([nH]c4ccccc34)C2C[C@@H]1/C(=C\OC)C(=O)OC` (some centres undefined), the CC50 in the assay with MDCK [12] was found to be 25.2 µg/mL (≈ 68.8 µM). This molecule gave an EC50 in the assay with MDCK [13] of 1.8 µg/mL (≈ 4.91 µM). This molecule also yielded a Selectivity index in assay [14] of 14.
On to `CC[C@H]1CN2CCc3c(n(C)c4ccccc34)[C@H]2C[C@@H]1/C(=C\OC)C(=O)OC`, for which the CC50 with MDCK [12] stood at 25.3 µg/mL (≈ 66.1 µM). Besides, the half-maximal effective concentration (EC50) in the assay with MDCK [13] amounted to 1.7 µg/mL (≈ 4.44 µM). The molecule also registered a Selectivity index in assay [14] of 15.8.
In the assay with MDCK [12], `C=C(C(=O)OC)[C@H]1C[C@@H]2c3[nH]c4ccccc4c3CCN2C[C@@H]1CC` returned a CC50 of 62.1 µg/mL (≈ 183 µM). The molecule further came in with an EC50 with MDCK [13] greater than 62.1 µg/mL.
In turn, `CC[C@@H]1CN2CCc3c([nH]c4ccccc34)[C@@H]2C[C@@H]1/C(=C\OC)C(=O)OC` [CORYNANRHEIDINE] yielded a CC50 with MDCK [12] of 45.1 µg/mL (≈ 122 µM). In the assay on MDCK [13], this molecule showed an EC50 greater than 45.1 µg/mL.
With `CC[C@H]1CN2CCc3c([nH]c4cccc(OC)c34)[C@H]2C[C@@H]1/C(=C\OC)C(=O)OC`, the CC50 with MDCK [12] was found to be 40.7 µg/mL (≈ 102 µM). It took 0.5 µg/mL (≈ 1.25 µM) to reach a half-maximal effect with MDCK [13] (EC50). This molecule also registered a Selectivity index in [14] of 76.8.
As for `NC(=O)c1ncn([C@@H]2O[C@H](CO)[C@@H](O)[C@H]2O)n1` [RIBAVIRIN], the EC50 was 34.2 µg/mL (≈ 140 µM) with MDCK [1]; 8.3 µg/mL (≈ 34 µM) with MDCK [2]; 11.7 µg/mL (≈ 47.9 µM) in the assay on MDCK [4]; 2.2 µg/mL (≈ 9.01 µM) with MDCK [5]; 2.1 µg/mL (≈ 8.6 µM) in the assay on MDCK [6]; 7.9 µg/mL (≈ 32.3 µM) in the assay on MDCK [7]. The values for the EC50 with MDCK [8], with MDCK [9] and with MDCK [10] were 6.1 µg/mL (≈ 25 µM), 5.5 µg/mL (≈ 22.5 µM) and 8.5 µg/mL (≈ 34.8 µM), respectively. Moreover, the CC50 in the assay with MDCK [3] is greater than 100 µg/mL.
Turning to `CC[C@H]1C[N+]2([O-])CCc3c([nH]c4ccccc34)[C@H]2C[C@@H]1/C(=C\OC)C(=O)OC` (some centres undefined), the CC50 in the assay with MDCK [12] is greater than 100 µg/mL. In the assay with MDCK [13], this molecule returned an EC50 of 86.4 µg/mL (≈ 225 µM). Further, the Selectivity index in assay [14] is listed as greater than 1.2.
For the molecule `CC[C@H]1CN2CCc3c([nH]c4ccccc34)[C@H]2C[C@@H]1C(/C=N\C)=C(/O)OC`, the CC50 in the assay on MDCK [12] stood at 3.9 µg/mL (≈ 10.6 µM). Besides, the EC50 in the assay on MDCK [13] is greater than 3.9 µg/mL.
`CC[C@H]1CN2Cc3c(nc4ccccc4c3O)[C@H]2C[C@@H]1/C(=C\OC)C(=O)OC`: the CC50 in the assay on MDCK [12] is 38.1 µg/mL (≈ 99.6 µM). Moreover, in the assay with MDCK [13], the EC50 was greater than 38.1 µg/mL.
Turning to `CC[C@H]1C[N+]2(C)CCc3c([nH]c4ccccc34)[C@H]2C[C@@H]1/C(=C\OC)C(=O)OC` (some centres undefined), the CC50 in the assay on MDCK [12] is greater than 100 µg/mL. For the same molecule, the EC50 with MDCK [13] was greater than 100 µg/mL.
For the molecule `CC[C@H]1CN2CC[C@]3(O)C(=Nc4ccccc43)[C@H]2C[C@@H]1/C(=C\OC)C(=O)OC`, in the assay with MDCK [12], the CC50 is greater than 100 µg/mL. Also, the EC50 in the assay on MDCK [13] was greater than 100 µg/mL.

One may read the EC50 as the concentration at which the effect is half-maximal. One may read the CC50 as the concentration that lowers cell viability or growth by half. A high value points to lower toxicity to the cells.
